Common to all, as to experiment: stopped-flow CO2 hydrase assay
What all share (type): biochemical

The target of one assay is T1, hCA II (Homo sapiens, UniProt P00918).
T1 construct: gene CA2; recombinant, obtained in-house; cytosolic isoform
An excerpt: stopped-flow CO2 hydrase assay on hCA II

A further assay addresses T2, VchCAα (Vibrio cholerae, UniProt Q9KMP6).
T2 construct: gene VC_A0274

In a further assay the target is T3, hCA I (Homo sapiens, UniProt P00915).
T3 construct: gene CA1; recombinant, obtained in-house; cytosolic isoform
T3 sequence (P00915 2-261): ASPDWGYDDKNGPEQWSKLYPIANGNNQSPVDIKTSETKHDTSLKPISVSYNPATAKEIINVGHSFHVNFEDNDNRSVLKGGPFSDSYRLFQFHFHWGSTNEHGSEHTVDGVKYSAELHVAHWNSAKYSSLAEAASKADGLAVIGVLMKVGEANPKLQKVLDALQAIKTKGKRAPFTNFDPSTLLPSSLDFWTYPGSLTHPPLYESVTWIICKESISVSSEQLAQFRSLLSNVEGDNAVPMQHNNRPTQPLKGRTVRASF
An excerpt: stopped-flow CO2 hydrase assay on hCA I

The next assay has as its target T4, VchCAβ (Vibrio cholerae, UniProt Q9KUD6).
T4 construct: gene VC_0586

T2 sequence (Q9KMP6 21-239 limits assumed): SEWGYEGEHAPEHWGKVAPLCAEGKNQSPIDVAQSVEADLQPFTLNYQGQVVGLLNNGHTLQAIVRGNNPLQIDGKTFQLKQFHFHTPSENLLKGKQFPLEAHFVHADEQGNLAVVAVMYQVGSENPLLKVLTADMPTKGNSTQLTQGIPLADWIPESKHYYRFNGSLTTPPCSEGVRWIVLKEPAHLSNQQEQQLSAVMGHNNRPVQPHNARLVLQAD
T4 sequence (Q9KUD6 1-222): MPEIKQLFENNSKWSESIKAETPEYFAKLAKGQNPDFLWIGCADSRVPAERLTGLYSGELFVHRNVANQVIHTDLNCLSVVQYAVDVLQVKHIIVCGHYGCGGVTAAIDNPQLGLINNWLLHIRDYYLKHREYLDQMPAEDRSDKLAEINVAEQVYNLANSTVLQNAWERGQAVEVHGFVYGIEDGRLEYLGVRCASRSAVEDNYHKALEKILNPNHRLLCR

With `NS(=O)(=O)Nc1ccccc1S(=O)(=O)NCC(=O)N1CCN(C(c2ccccc2)c2ccccc2)CC1` [6c, N-(2-(4-Benzhydrylpiperazin-1-yl)-2-oxoethyl)-2-(sulfamoylamino)benzenesulfonamide], the Ki is 850 nM at hCA II, 931 nM at VchCAα, 840 nM at hCA I and greater than 10 µM at VchCAβ.
The like results for `NS(=O)(=O)Nc1ccccc1S(=O)(=O)N1CCC(C(=O)N2CCN(C(c3ccc(F)cc3)c3ccc(F)cc3)CC2)CC1` [6n, (4-(bis(4-Fluorophenyl)methyl)piperazin-1-yl)(1-((2-sulfamo-ylaminophenyl)sulfonyl)piperidin-4-yl)methanone] were, in that order, 590 nM, 3750 nM, 683 nM and greater than 10 µM.
As for `NS(=O)(=O)Nc1cccc(S(=O)(=O)N2CCN(C(c3ccccc3)c3ccccc3)CC2)c1` [6a, 1-Benzhydryl-4-((3-sulfamoylaminophenyl)sulfonyl)piperazine], the Ki at hCA II stood at 417 nM; on VchCAα, 334 nM; on hCA I, 66.2 nM; at VchCAβ it was 4.68 µM.
For the compound `NS(=O)(=O)Nc1ccc(S(=O)(=O)N2CCN(C(c3ccc(F)cc3)c3ccc(F)cc3)CC2)cc1` [6j, 1-(Bis(4-Fluorophenyl)methyl)-4-((4-sulfamoylaminophenyl)sulfonyl)piperazine], the Ki was determined as 353 nM on hCA II, 274 nM on VchCAα, 64.6 nM on hCA I and 4.35 µM at VchCAβ.
On to `NS(=O)(=O)Nc1ccccc1S(=O)(=O)N1CCN(C(c2ccc(F)cc2)c2ccc(F)cc2)CC1` [6h, 1-(Bis(4-Fluorophenyl)methyl)-4-((2-sulfamoylaminophenyl)sulfonyl)piperazine], for which the Ki was 1170 nM on hCA II, 2800 nM at VchCAα, 843 nM on hCA I and greater than 10 µM at VchCAβ.
Take `NS(=O)(=O)Nc1ccc(S(=O)(=O)N2CCN(C(c3ccccc3)c3ccccc3)CC2)cc1` [6b, 1-Benzhydryl-4-((4-sulfamoylaminophenyl)sulfonyl)piperazine]: the Ki is 359 nM at hCA II, 236 nM on VchCAα, 555 nM at hCA I and 1.88 µM at VchCAβ.
Take `NS(=O)(=O)Nc1cccc(S(=O)(=O)NCC(=O)N2CCN(C(c3ccccc3)c3ccccc3)CC2)c1` [6d, N-(2-(4-Benzhydrylpiperazin-1-yl)-2-oxoethyl)-3-(sulfamoylamino)benzenesulfonamide]: the Ki at hCA II turned out to be 396 nM; on VchCAα, 95.7 nM; on hCA I it was 58.1 nM; at VchCAβ, 3.78 µM.
With `NS(=O)(=O)Nc1cccc(S(=O)(=O)N2CCN(C(c3ccc(F)cc3)c3ccc(F)cc3)CC2)c1` [6i, 1-(Bis(4-Fluorophenyl)methyl)-4-((3-sulfamoylaminophenyl)sulfonyl)piperazine], the Ki worked out at 389 nM at hCA II, 588 nM on VchCAα, 75 nM on hCA I and 1.74 µM on VchCAβ.
As for `NS(=O)(=O)Nc1ccc(S(=O)(=O)N2CCC(C(=O)N3CCN(C(c4ccccc4)c4ccccc4)CC3)CC2)cc1` [6g, (4-Benzhydrylpiperazin-1-yl)(1-((4-sulfamoylaminophenyl)sulfonyl)piperidin-4-yl)methanone], the Ki was determined as 227 nM on hCA II, 140 nM at VchCAα, 601 nM at hCA I and 2.54 µM on VchCAβ.
`NS(=O)(=O)Nc1cccc(S(=O)(=O)NCC(=O)N2CCN(C(c3ccc(F)cc3)c3ccc(F)cc3)CC2)c1` [6l, N-(2-(4-(bis(4-Fluorophenyl)methyl)piperazin-1-yl)-2-oxoethyl)-3-(sulfamoylamino)benzenesulfonamide]: the Ki is 218 nM on hCA II, 91.4 nM at VchCAα, 71.1 nM at hCA I and greater than 10 µM at VchCAβ.
Consider `NS(=O)(=O)Nc1cccc(S(=O)(=O)N2CCC(C(=O)N3CCN(C(c4ccccc4)c4ccccc4)CC3)CC2)c1` [6f, (4-Benzhydrylpiperazin-1-yl)(1-((3-sulfamoylaminophenyl)sulfonyl)piperidin-4-yl)methanone], for which the inhibition constant (Ki) on hCA II was 576 nM; at VchCAα, 654 nM; at hCA I, 43.1 nM; on VchCAβ, 3.79 µM.
With `NS(=O)(=O)Nc1ccc(S(=O)(=O)N2CCC(C(=O)N3CCN(C(c4ccc(F)cc4)c4ccc(F)cc4)CC3)CC2)cc1` [6p, (4-(bis(4-Fluorophenyl)methyl)piperazin-1-yl)(1-((4-sulfamo-ylaminophenyl)sulfonyl)piperidin-4-yl)methanone], the Ki came out at 182 nM at hCA II, 398 nM on VchCAα, 49.1 nM on hCA I and 4.53 µM on VchCAβ.
Consider `NS(=O)(=O)Nc1ccc(S(=O)(=O)NCC(=O)N2CCN(C(c3ccc(F)cc3)c3ccc(F)cc3)CC2)cc1` [6m, N-(2-(4-(bis(4-Fluorophenyl)methyl)piperazin-1-yl)-2-oxoethyl)-4-(sulfamoylamino)benzene sulfonamide], for which the Ki came out at 208 nM at hCA II, 106 nM on VchCAα, 47.8 nM on hCA I and 4.67 µM on VchCAβ.
On to `NS(=O)(=O)Nc1ccccc1S(=O)(=O)N1CCC(C(=O)N2CCN(C(c3ccccc3)c3ccccc3)CC2)CC1` [6e, (4-Benzhydrylpiperazin-1-yl)(1-((2-sulfamoylaminophenyl)sulfonyl)piperidin-4-yl)methanone], for which the Ki on hCA II is 1360 nM; on VchCAα, 879 nM; at hCA I it was 578 nM; on VchCAβ, greater than 10 µM.
For the compound `NS(=O)(=O)Nc1ccccc1S(=O)(=O)NCC(=O)N1CCN(C(c2ccc(F)cc2)c2ccc(F)cc2)CC1` [6k, N-(2-(4-(bis(4-Fluorophenyl)methyl)piperazin-1-yl)-2-oxoethyl)-2-(sulfamoylamino)benzenesulfonamide], the inhibitory constant (Ki) was 1430 nM at hCA II, 1750 nM on VchCAα, 338 nM at hCA I and greater than 10 µM on VchCAβ.
Turning to `NS(=O)(=O)Nc1cccc(S(=O)(=O)N2CCC(C(=O)N3CCN(C(c4ccc(F)cc4)c4ccc(F)cc4)CC3)CC2)c1` [6o, (4-(bis(4-Fluorophenyl)methyl)piperazin-1-yl)(1-((3-sulfamoylaminophenyl)sulfonyl)piperidin-4-yl)methanone], the Ki on hCA II amounted to 663 nM; at VchCAα, 497 nM; at hCA I, 72 nM; at VchCAβ, 1.58 µM.

By Ki is commonly meant a measure of affinity in units of concentration, obtained from inhibition or displacement. A low value points to higher affinity.

Values taken from publication PMC6041819, “Synthesis of novel benzenesulfamide derivatives with inhibitory activity against human cytosolic carbonic anhydrase I and II and Vibrio cholerae α- and β-class enzymes” (Journal of Enzyme Inhibition and Medicinal Chemistry, 2018).
